Data as given in US20250325501A1, “A SPHINGOSINE-1-PHOSPHATE RECEPTOR (S1PR) MODULATOR FOR USE IN TREATING A PATIENT SUFFERING FROM ALZHEIMER'S DEMENTIA” (Otto-von-Guericke-Universitaet Magdeburg, priority 2022, published 2025).

What was measured:
[1] = test system: APP/PS1 Alzheimer's disease (AD) mouse model; assay: Dendritic spine density analysis (Golgi-Cox staining) in APP/PS1 AD mice; type: in vivo; settings: for spine deficits in CA3 pyramidal neurons and dentate gyrus granule cells: 15-month-old male AD mice
[2] = test system: APP/PS1 Alzheimer's disease (AD) mouse model; assay: Contextual fear learning in AD mice; type: in vivo; settings: 15-month-old male AD mice; 3.0 mg/kg/2nd day for 1 month; FIG. 3
Experimental: The therapeutic effect of fingolimod (FTY720) as an example for an S1PR modulator for use in the treatment of Alzheimer's disease was tested in an established double transgenic amyloid precursor protein/presenilin-1 (APP/PS1) Alzheimer's disease (AD) mouse model that starts to develop amyloid-β (Aβ) pathology in the neocortex and hippocampus at two and four months of age, respectively. This AD mouse model is particularly close to human AD pathology. Impaired LTP (long-term potentiation) at Schaffer collateral CA1 synapses in acute slices ex vivo is observed at five months in these mice and becomes detectable with in vivo recordings beyond six months of age. Moreover, hippocampus-dependent learning deficits in this APP/PS1 mouse model become apparent five to eight months after birth. […]
The analyses of the animals comprises dendritic spine density analysis, LTP recordings, Morris water maze spatial learning and memory testing, contextual fear condition training and memory testing, immunohistological stainings of microgliosis and astrogliosis, biochemical brain-derived neurotrophic factor (BDNF) quantification and downstream TrkB receptor (a high affinity BDNF receptor) signaling, and statistical analysis.

[3] = CD11c+/CD14+ age/AD-associated microglia in the cortex of AD mice; type: in vivo, mouse; settings: 15-month-old male AD mice; 1.0 mg/kg/2nd day for 1 month; FIG. 8
Experimental: (§1) The therapeutic effect of fingolimod (FTY720) as an example for an S1PR modulator for use in the treatment of Alzheimer's disease was tested in an established double transgenic amyloid precursor protein/presenilin-1 (APP/PS1) Alzheimer's disease (AD) mouse model that starts to develop amyloid-β (Aβ) pathology in the neocortex and hippocampus at two and four months of age, respectively. This AD mouse model is particularly close to human AD pathology. Impaired LTP (long-term potentiation) at Schaffer collateral CA1 synapses in acute slices ex vivo is observed at five months in these mice and becomes detectable with in vivo recordings beyond six months of age. Moreover, hippocampus-dependent learning deficits in this APP/PS1 mouse model become apparent five to eight months after birth.
(§2) Male APP/PS1 mice and littermate controls (wild-type healthy mice) were treated with intraperitoneal (i.p.) injections of fingolimod (FTY720; dissolved in 3% DMSO, 1.0 mg/kg or 3.0 mg/kg body weight) every second day for 1 to 2 months.
(§3) Substance A: Control, Substance B: FTY720 (1.0 mg/kg/2nd day) for 1 month.

[4] = test system: CD11c+/CD14+ age/AD-associated microglia; assay: as above; type: in vivo, mouse; settings: 15-month-old male AD mice; 1.0 mg/kg/2nd day for 1 month; FIG. 9
Experimental: as §1, §2, §3

## CCCCCCCCc1ccc(CCC(N)(CO)CO)cc1 [Fingolimod]
[1]; 6-7-month-old male AD mice, low dose 0.2 mg/kg/2nd day for 1 month, FIG. 6
  spine deficits in CA1 pyramidal neurons: restored spine deficits
[1]; 1.0 mg/kg/2nd day for 1 month, near and distant to plaques, FIG. 4, 1 mg/kg
  spine deficits in CA3 pyramidal neurons and dentate gyrus granule cells: restored spine deficits
[1]; 1.0 mg/kg/2nd day for 1 month, near and distant to plaques, FIG. 4, listed as FTY, 1 mg/kg
  spine deficits in CA3 pyramidal neurons and dentate gyrus granule cells: completely rescued spine decrease near and distant to AB plaques
[1]; 3.0 mg/kg/2nd day for 1 month, FIG. 5
  spine deficits in CA3 pyramidal neurons and dentate gyrus granule cells: restored spine deficits
[1]; AD mice at 6-7 months and 15-16 months, short-term treatment
  number of synaptic spines versus same-aged healthy mice (wild-type littermates): restored at both ages (6-7 months and 15-16 months) to the level of same-aged healthy mice
[1]; APP/PS1 mice, CA1 secondary apical dendrites <50 μm from nearest plaque, FIGS. 1 and 2
  spine deficits in dendrites close to plaques: significant amelioration of spine deficits
[1]; APP/PS1 mice, CA1 secondary apical dendrites >50 μm from closest plaque, FIGS. 1 and 2
  spine deficits in dendrites distant to plaques: complete rescue of spine deficits
[1]; male 15-month-old AD model mice, FIG. 1
  spine deficits in CA1 pyramidal neurons: restored spine deficits
[2]
  deficit in contextual fear learning: restored the deficit
[3]
  increased frequency of CD11c+/CD14+ age/AD-associated microglia in the cortex: reduces the increased frequency
[4]
  increased number of CD11c+/CD14+ age/AD-associated microglia in the cortex: reduces the increased number

## CC(C)Oc1ccc(-c2nc(-c3cccc4c3CC[C@@H]4NCCO)no2)cc1C#N [Ozanimod]
[1]; aged (16-month-old) male AD mice, 1 mg/kg via drinking water for 1 month, starting at 15 months, FIG. 7
  spine deficits in CA1 pyramidal neurons: very similar capacity to restore spine deficits
